Key:
[1] = test system: A431 cells; assay: A431 cell proliferation inhibition (SRB); assay type: cell-based; conditions: Homo sapiens, A-431, wild-type EGFR, 72 hours
Method: A431 cell proliferation inhibition: The compounds of the present invention have good selectivity to wild-type EGFR
(§1) a) The medium was preheated in a 37° C. water bath.
(§2) b) The cryopreservation tube was taken from the liquid nitrogen tank, quickly placed in a 37° C. water bath, and melted completely within 1 minute.
(§3) c) The cell suspension was transferred to a 15 mL centrifuge tube containing a 10 mL medium and centrifuged at 1000 rpm for 4 minutes.
(§4) d) The supernatant was discarded, the cells were resuspended in a 1 mL medium and transferred to a […] culture dish containing a 10 mL medium, 20% serum and 50 ng/mL EGF were administered to the first-generation medium, and culture was conducted in a 37° C. and 5% CO2 incubator.
(§5) b) The cells in the culture dish were blown evenly with a 5 mL pipette, and 500 μL of the cells were pipetted out to be inoculated into a new […] culture dish and cultured in a 37° C. and 5% CO2 incubator.
(§6) a) The compound to be tested (10 mM stock solution) was diluted with 100% DMSO to 1 mM, and diluted with a culture solution in a 24-well plate to prepare of a working solution of 2 μM concentration.
(§7) b) The 2 μM working solution was diluted with a triple dilution method to obtain working solutions with approximate concentrations of 2 μM, 600 nM, 200 nM, 60 nM, and 20 nM.
a) The cells at the logarithmic growth phase were centrifuged at 1000 rpm for 4 minutes, resuspended with a medium (containing 10% serum and 50 ng/mL EGF), and counted.
b) The cells were inoculated into a 96-well plate with a cell density of 4000 cells/well, and placed in a 37° C. and 5% CO2 incubator for culture for 12 hours.
a) The prepared compound was added to a 96-well plate, with 100 μL per well. The final concentrations were 1 μM, 300 nM, 100 nM, 30 nM, 10 nM, and 0 nM, and the final concentration of DMSO was 0.2%. A medium served as a blank control.
b) The cells were placed in 37° C. and 5% CO2 incubator for culture for 72 hours.
(5) Cell Viability Testing
a) The cell supernatant was discarded, rinsed once with 1×PBS, and fixed with 10% trichloroacetic acid for 1 hour. The trichloroacetic acid was discarded, excess trichloroacetic acid was washed off with tap water, and the 96-well plate was dried in a 60° C. oven.
b) 70 μL of an SRB stain was added to each well of the dry 96-well plate for staining at a room temperature for 30 minutes. Excess SRB stain was washed off with 1% glacial acetic acid, and the 96-well plate was dried in a 60° C. oven.
c) SRB was dissolved with 100 μL of 10 mM Tris-base solution. The absorbance was detected at 540 nm ultraviolet absorption using the microplate reader. The data was analyzed.
(§8) The data was analyzed using GraphPad Prism 8.0 software to obtain a fitted curve of activity of the compounds. The IC50 of the compounds was fitted from nonlinear regression equation.

[2] = test system: EGFR phosphorylation in Ba/F3-EGFR^L858R/T790M/C797S engineered cells; assay: Cell phosphorylation inhibition effect (pEGFR ELISA); assay type: cell-based, human; conditions: for IC50: Mus musculus, Ba/F3 EGFR-L858R, EGF stimulated, ELISA pY1068, read-out: Cellular pEGFR Inhibition IC50 (nM) Ba/F3-EGFR^L858R/T790M/C797S; for inhibitory effect on EGFR phosphorylation (in words): Ba/F3-EGFR^L858R/T790M/C797S engineered cells
Method: Cell line: BaF3 cells with stable overexpression of EGFR^T790M/C797S/L858R mutant genes, named BaF3-EGFR^T790M/C797S/L858R cells.
as §1, §2, §3, §4, §5, §6, §7
a) The cells at the logarithmic growth phase were centrifuged at 1000 rpm for 4 minutes, resuspended with a medium (containing 10% serum), and counted.
b) The cells were inoculated into a 24-well plate with a cell density of 2 million cells/well, and placed in a 37° C. and 5% CO2 incubator for stabilization overnight.
a) The prepared compound was added to a 96-well plate, with 100 μL per well. The final concentrations were 1 μM, 300 nM, 100 nM, 30 nM, 10 nM, and 0 nM, and the final concentration of DMSO was 0.2%. A medium and 0.2% DMSO served as a blank control.
b) 100 ng/mL EGF was added at 1 hour and 45 minutes of administration. After 15 minutes of EGF treatment, the cells were collected and centrifuged to obtain the supernatant.
(5) Detection of Intracellular pEGFR Content
The content of EGFR and pEGFR in the supernatant was determined using an ELISA kit (Abcam, ab126439-EGFR (pY1068)+total EGFR Human ELISA).
as §8

[3] = Detection of oral plasma exposure in rats; assay type: in vivo; conditions: rat, SD rats, p.o. 10 mg/kg
Method: Detection of oral plasma exposure in rats: The compounds of the present invention have good oral in-vivo exposure in rats
After a single dose of 10 mg/kg oral administration of the compound to be tested in SD rats, blood samples were collected at different time points.
Standard curve and quality control sample preparation processing: The mixed reserve solution of the compound to be tested was taken and diluted with 50% methanol water into standard working solutions containing respective compounds with concentrations of 20, 40, 100, 200, 400, 1000, 2000, 4000, 10000, and 20000 ng/mL, as well as 60, 600, and 16000 ng/mL quality control working solutions. […] of a blank matrix was taken. […] of the standard curve working solutions and the quality control working solutions were added to prepare standard curves containing respective compounds with concentrations of 1.00, 2.00, 5.00, 10.00, 20.00, 50.00, 100.00, 200.00, 500.00, and 1000.00 ng/mL, as well as quality control samples with concentrations of 3.00, 30.00, and 800.00 ng/mL, respectively. 400 μL of acetonitrile (containing internal standard Verpmil of 2 ng/mL) was added. After vortex oscillation at 700 rcf for 10 minutes, centrifugation was conducted at 3300 rcf at 4° C. for 10 minutes. The supernatant was taken for LC-MS/MS analysis.
Unknown sample preparation processing: 50 μL of the sample to be tested was taken. 400 μL of acetonitrile (containing internal standard Verpmil of 2 ng/mL) was added. After vortex oscillation at 700 rcf for 10 minutes, centrifugation was conducted at 3300 rcf and 4° C. for 10 minutes. The supernatant was taken for LC-MS/MS analysis.

Compound CCc1cc(Nc2ncc(Cl)c(Nc3ccc(C)c(C)c3P(C)(C)=O)n2)c(OC)cc1N1CCC(N2CCN(C)CC2)CC1 [Comparative Compound A, reference compound] has an IC50 [1] of 207 nM and an IC50 [2] of 405 nM.
With CCc1cc(Nc2ncc(Cl)c(Nc3ccc(C)c(C)c3P(C)(C)=O)n2)c(OC)cc1N1CCC2(CC1)CC(N(C)C)C2 [Compound 6, (6-((5-chloro-2-((4-(2-(dimethylamino)-7-azaspiro[3.5]nonan-7-yl)-5-ethyl-2-methoxyphenyl)amino)pyrimidin-4-yl)amino)-2,3-dimethylphenyl)dimethylphosphine oxide] the IC50 [1] was over 1000 nM, the AUC(0-t) [3] was 13800 ng·h/mL and the Cmax [3] was 866 ng/mL. It also gave a Tmax [3] of 8 h, a half-life [3] of 9.72 h and an AUC(0-inf) ([3]; read-out: AUCINF—obs) of 17700 ng·h/mL.
In the case of CCc1cc(Nc2ncc(Cl)c(Nc3ccc(C)c(C)c3P(C)(C)=O)n2)c(OC)cc1N1CC2(CCN(C)CC2)C1 [Compound 24, (6-((5-Chloro-2-((5-ethyl-2-methoxy-4-(7-methyl-2,7-diazaspiro[3.5]non-2-yl)phenyl)amino)pyrimidin-4-yl)amino)-2,3-dimethylphenyl)dimethylphosphine oxide], the IC50 [1] is reported as over 1000 nM, the “inhibitory effect on EGFR phosphorylation (in words)” value [2] is reported as “good inhibitory effect” and the IC50 [2] is reported as 150 nM. The AUC(0-t) [3] was 7870 ng·h/mL, the Cmax [3] was 505 ng/mL and the Tmax [3] was 9 h. The half-life [3] was 9.48 h.
For CCc1cc(Nc2ncc(Cl)c(Nc3ccc(C)c(C)c3P(C)(C)=O)n2)c(OC)cc1N1CCC(N2C[C@H]3CC[C@@H](C2)N3C)CC1 [Compound 51, (6-((5-chloro-2-((5-ethyl-2-methoxy-4-(4-((1R,5S)-8-methyl-3,8-diazabicyclo[3.2.1]octan-3-yl)piperidin-1-yl)phenyl)amino)pyrimidin-4-yl)amino)-2,3-dimethylphenyl)dimethylphosphine oxide], the IC50 [1] was 745 nM, the “inhibitory effect on EGFR phosphorylation (in words)” value [2] was “good inhibitory effect” and the IC50 [2] was 132 nM. The AUC(0-t) [3] was 20700 ng·h/mL, the Cmax [3] was 1220 ng/mL and the Tmax [3] was 4 h. The half-life [3] was 9.47 h.
